Emax, EC50 and IC50 data for two compounds are collected here from patent US6660870B1, “2-acylaminobenzimidazole derivatives for treating glaucoma” (Alcon, Inc., priority 2000, dated 2003).

The structures appear in SMILES notation.

In general, Emax refers to the size of the effect at its maximum, as opposed to the concentration needed. The EC50 is the concentration giving half of the maximal effect. Lower therefore signals greater potency. The term IC50 denotes the point on the concentration scale where inhibition reaches its midpoint. Read a high IC50 as a need for much substance.

One experiment addresses T1, 5-HT2 receptor (Rattus norvegicus, UniProt P14842).
T1 construct: A7r5 rat vascular smooth muscle cells; endogenous in cells; host or cells: A7r5 rat vascular smooth muscle cells
Nature of the experiment: 5-HT2 Functional Assay: Phosphoinositide (PI) Turnover Assay. Type of experiment: cell-based. As to conditions: for EC50: [3H]inositol phosphate production in A7r5 rat vascular smooth muscle cells. As to the method:
5-HT2 Functional Assay: Phosphoinositide (PI) Turnover Assay
The relative agonist activity of serotonergic compounds at the 5-HT2 receptor can be determined in vitro using the ability of the compounds to stimulate the production of [^3H]inositol phosphates in [^3H]myo-inositol-labeled A7r5 rat vascular smooth muscle cells by their ability to activate the enzyme phospholipase C. These cells are grown in culture plates, maintained in a humidified atmosphere of 5% CO2 and 95% air and fed semi-weekly with Dulbecco's modified Eagle medium (DMEM) containing 4.5 g/l glucose and supplemented with 2 mM glutamine, 10 μg/ml gentamicin, and 10% fetal bovine serum. For the purpose of conducting the phosphoinositide (PI) turnover experiments, the A7r5 cells are cultured in 24-well plates as previously [J. Pharmacol. Expt. Ther., 286, 411 (1998)]. Confluent cells are exposed for 24-30 hrs to 1.5 μCi [^3H]-myo-inositol (18.3 Ci/mmol) in 0.5 ml of serum-free medium. Cells are then rinsed once with DMEM/F-12 containing 10 mM LiCl prior to incubation with the test agent (or solvent as the control) in 1.0 ml of the same medium for 1 hr at 37° C., after which the medium is aspirated and 1 ml of cold 0.1 M formic acid added to stop the reaction. The chromatographic separation of [^3H]-inositol phosphates ([^3H]-IPs) on an AG-1-X8 column is performed as previously described [J. Pharmacol. Expt. […] The eluate (4 ml) is collected, mixed with 15 ml scintillation fluid, and the total [^3H]-IPs determined by scintillation counting on a beta-counter. Concentration-response data are analyzed by the sigmoidal fit function of the Origin Scientific Graphics software (Microcal Software, Northampton, Mass.) to determine agonist potency (EC50 value) and efficacy (Emax). Serotonin (5-HT) is used as a positive control (standard) agonist compound and the efficacy of test compounds is compared to that of 5-HT (set at 100%).

In another experiment the target is brain 5-HT2 receptors (Rattus norvegicus, UniProt P14842). The experiment can be described thus: 5-HT2 Receptor Binding Assay ([125I]DOI competition). Conditions: competition for [125I]DOI binding, post mortem rat or human cerebral cortex homogenates. The procedure:
5-HT2 Receptor Binding Assay
Aliquots of post mortem rat or human cerebral cortex homogenates (400 μl) dispersed in 50 mM TrisHCl buffer (pH 7.4) are incubated with [^125I]DOI (80 pM final) in the absence or presence of methiothepin (10 μM final) to define total and non-specific binding, respectively, in a total volume of 0.5 ml. The assay mixture is incubated for 1 hour at 23° C. in polypropylene tubes and the assays terminated by rapid vacuum filtration over Whatman GF/B glass fiber filters previously soaked in 0.3% polyethyleneimine using ice-cold buffer. Test compounds (at different concentrations) are substituted for methiothepin. Filter-bound radioactivity is determined by scintillation spectrometry on a beta counter. The data are analyzed using a non-linear. iterative curve-fitting computer program [Trends Pharmacol. Sci., 16, 413 (1995)] to determine the compound affinity parameter. The concentration of the compound needed to inhibit the [^125I]DOI binding by 50% of the maximum is termed the IC50 […].

T1 sequence (P14842 whole entry): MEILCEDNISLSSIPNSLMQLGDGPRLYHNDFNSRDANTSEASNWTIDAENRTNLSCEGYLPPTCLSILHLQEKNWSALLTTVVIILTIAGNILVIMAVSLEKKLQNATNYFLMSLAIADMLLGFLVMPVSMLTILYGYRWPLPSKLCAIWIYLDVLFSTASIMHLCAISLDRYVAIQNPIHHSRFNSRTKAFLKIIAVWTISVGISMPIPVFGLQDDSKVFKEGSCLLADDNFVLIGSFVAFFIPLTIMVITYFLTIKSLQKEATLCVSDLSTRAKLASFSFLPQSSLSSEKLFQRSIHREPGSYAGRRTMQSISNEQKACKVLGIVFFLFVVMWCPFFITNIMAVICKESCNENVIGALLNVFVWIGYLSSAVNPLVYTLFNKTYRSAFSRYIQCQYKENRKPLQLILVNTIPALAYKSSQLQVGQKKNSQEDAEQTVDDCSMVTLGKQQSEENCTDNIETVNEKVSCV
Sequence of brain 5-HT2 receptors (P14842 whole entry): as above

In the case of `Cc1ccc(C(=O)Nc2nc3ccccc3n2CCN(C)C)cc1` [Example 1, 1-(N,N-Dimethylaminoethyl)-2-(4-methylbenzamido)benzimidazole], the Emax at 5-HT2 receptor (A7R5, read-out: Efficacy (Emax, %)) worked out at 35%. For the same compound, the EC50 on 5-HT2 receptor was determined as 404 nM.
On to `COc1cc(C[C@@H](C)N)c(OC)cc1I` [(R)-DOI], for which the IC50 on brain 5-HT2 receptors is 0.46 nM. For the same compound, it took 277 nM to reach a half-maximal effect at 5-HT2 receptor (EC50).
